# Values joined by “and” are separate entries in the source; they are usually repeats but may differ in a detail not shown here. Equal entries are not always repeated. Toxic doses and inconclusive results are not listed.
# Tested on: L1210 leukemia ip in BDF1 mice, survival T/C
# Assay: NCI In Vivo Anticancer Drug Screen. Data for tumor model L1210 Leukemia (intraperitoneal) in B6D2F1 (BDF1) mice
# Settings: endpoint: mean survival time, higher = longer survival
# Summary of the method: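 Survival endpoint. Drug-treated group vs vehicle group, expressed as T divided by C. Tumor passaged by transplantation.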
smiles,measurement,setting,value
O=c1[nH]cc(N(CCCl)CCCl)c(=O)[nH]1,T/C,"dose: 0.04 mg/kg/injection, schedule: Q01DX001 (ip), vehicle: carboxymethylcellulose (CMC)",106 % of control
same,T/C,"dose: 0.05 mg/kg/injection, schedule: Q01DX Z (ip), vehicle: carboxymethylcellulose (CMC)",107 % of control
same,T/C,"dose: 0.05 mg/kg/injection, schedule: Q#A X Z (ip), vehicle: carboxymethylcellulose (CMC)",101 % of control
same,T/C,"dose: 0.07 mg/kg/injection, schedule: Q01DX001 (ip), vehicle: carboxymethylcellulose (CMC)",101 % of control
same,T/C,"dose: 0.07 mg/kg/injection, schedule: Q03DX006 (ip), vehicle: carboxymethylcellulose (CMC)",123 % of control
same,T/C,"dose: 0.09 mg/kg/injection, schedule: Q#A X Z (ip), vehicle: carboxymethylcellulose (CMC)",106 % of control
same,T/C,"dose: 0.1 mg/kg/injection, schedule: Q01DX Z (ip), vehicle: carboxymethylcellulose (CMC)",102 % of control
same,T/C,"dose: 0.1 mg/kg/injection, schedule: Q01DX Z (ip), vehicle: saline",157 % of control
same,T/C,"dose: 0.13 mg/kg/injection, schedule: Q01DX001 (ip), vehicle: carboxymethylcellulose (CMC)",100 % of control
same,T/C,"dose: 0.16 mg/kg/injection, schedule: Q07DX003 (ip), vehicle: carboxymethylcellulose (CMC)",108 % of control
same,T/C,"dose: 0.19 mg/kg/injection, schedule: Q#A X Z (ip), vehicle: carboxymethylcellulose (CMC)",110 % of control
same,T/C,"dose: 0.25 mg/kg/injection, schedule: Q01DX001 (ip), vehicle: carboxymethylcellulose (CMC)",105 % of control
same,T/C,"dose: 0.3 mg/kg/injection, schedule: Q01DX Z (ip), vehicle: saline",159 % of control
same,T/C,"dose: 0.3 mg/kg/injection, schedule: Q03DX006 (ip), vehicle: carboxymethylcellulose (CMC)",109 % of control
same,T/C,"dose: 0.32 mg/kg/injection, schedule: Q07DX003 (ip), vehicle: carboxymethylcellulose (CMC)",102 % of control
same,T/C,"dose: 0.37 mg/kg/injection, schedule: Q#A X Z (ip), vehicle: carboxymethylcellulose (CMC)",119 % of control
same,T/C,"dose: 0.38 mg/kg/injection, schedule: Q01DX006 (iv), vehicle: carboxymethylcellulose (CMC)",91 % of control
same,T/C,"dose: 0.38 mg/kg/injection, schedule: Q01DX Z (im), vehicle: carboxymethylcellulose (CMC)",98 % of control
same,T/C,"dose: 0.38 mg/kg/injection, schedule: Q01DX Z (sc), vehicle: carboxymethylcellulose (CMC)",104 % of control
same,T/C,"dose: 0.5 mg/kg/injection, schedule: Q01DX001 (ip), vehicle: carboxymethylcellulose (CMC)",170 % of control
same,T/C,"dose: 0.6 mg/kg/injection, schedule: Q03DX006 (ip), vehicle: carboxymethylcellulose (CMC)",170 % of control
same,T/C,"dose: 0.63 mg/kg/injection, schedule: Q07DX003 (ip), vehicle: carboxymethylcellulose (CMC)",121 % of control
same,T/C,"dose: 0.7 mg/kg/injection, schedule: Q01DX Z (ip), vehicle: saline",101 % of control
same,T/C,"dose: 0.75 mg/kg/injection, schedule: Q01DX006 (iv), vehicle: carboxymethylcellulose (CMC)",110 % of control
same,T/C,"dose: 0.75 mg/kg/injection, schedule: Q01DX015 (ip), vehicle: carboxymethylcellulose (CMC)",178 % of control
same,T/C,"dose: 0.75 mg/kg/injection, schedule: Q01DX Z (im), vehicle: carboxymethylcellulose (CMC)",101 % of control
same,T/C,"dose: 0.75 mg/kg/injection, schedule: Q01DX Z (ip), vehicle: carboxymethylcellulose (CMC)",119 % of control
same,T/C,"dose: 0.75 mg/kg/injection, schedule: Q01DX Z (sc), vehicle: carboxymethylcellulose (CMC)",107 % of control
same,T/C,"dose: 0.8 mg/kg/injection, schedule: Q01DX Z (ip), vehicle: other",109 % of control
same,T/C,"dose: 1.1 mg/kg/injection, schedule: Q01DX015 (ip), vehicle: carboxymethylcellulose (CMC)",182 % of control
same,T/C,"dose: 1.1 mg/kg/injection, schedule: Q03DX006 (ip), vehicle: carboxymethylcellulose (CMC)",181 % of control
same,T/C,"dose: 1.2 mg/kg/injection, schedule: Q01DX Z (ip), vehicle: alkali diluted with saline",118 % of control
same,T/C,"dose: 1.2 mg/kg/injection, schedule: Q01DX Z (ip), vehicle: saline",159 % of control
same,T/C,"dose: 1.25 mg/kg/injection, schedule: Q07DX003 (ip), vehicle: carboxymethylcellulose (CMC)",114 % of control and 201 % of control
same,T/C,"dose: 1.3 mg/kg/injection, schedule: Q01DX Z (ip), vehicle: other",120 % of control
same,T/C,"dose: 1.5 mg/kg/injection, schedule: Q01DX006 (iv), vehicle: carboxymethylcellulose (CMC)",104 % of control and 109 % of control
same,T/C,"dose: 1.5 mg/kg/injection, schedule: Q01DX Z (im), vehicle: carboxymethylcellulose (CMC)",108 % of control
same,T/C,"dose: 1.5 mg/kg/injection, schedule: Q01DX Z (ip), vehicle: carboxymethylcellulose (CMC)",115 % of control
same,T/C,"dose: 1.5 mg/kg/injection, schedule: Q01DX Z (oral), vehicle: carboxymethylcellulose (CMC)",119 % of control
same,T/C,"dose: 1.5 mg/kg/injection, schedule: Q01DX Z (sc), vehicle: carboxymethylcellulose (CMC)",115 % of control
same,T/C,"dose: 1.5 mg/kg/injection, schedule: Q#A X Z (ip), vehicle: carboxymethylcellulose (CMC)",111 % of control
same,T/C,"dose: 1.6 mg/kg/injection, schedule: Q01DX001 (ip), vehicle: gum acacia",110 % of control
same,T/C,"dose: 1.7 mg/kg/injection, schedule: Q01DX015 (ip), vehicle: carboxymethylcellulose (CMC)",170 % of control
same,T/C,"dose: 1.8 mg/kg/injection, schedule: Q01DX Z (ip), vehicle: alkali diluted with saline",112 % of control
same,T/C,"dose: 1.8 mg/kg/injection, schedule: Q01DX Z (ip), vehicle: other",109 % of control
same,T/C,"dose: 2.0 mg/kg/injection, schedule: Q01DX001 (ip), vehicle: carboxymethylcellulose (CMC)",109 % of control and 123 % of control
same,T/C,"dose: 2.4 mg/kg/injection, schedule: Q01DX001 (ip), vehicle: gum acacia",186 % of control
same,T/C,"dose: 2.5 mg/kg/injection, schedule: Q01DX Z (ip), vehicle: alkali diluted with saline",116 % of control
same,T/C,"dose: 2.7 mg/kg/injection, schedule: Q01DX Z (ip), vehicle: other",124 % of control
same,T/C,"dose: 3.0 mg/kg/injection, schedule: Q01DX006 (iv), vehicle: carboxymethylcellulose (CMC)",112 % of control
same,T/C,"dose: 3.0 mg/kg/injection, schedule: Q01DX Z (ip), vehicle: carboxymethylcellulose (CMC)",105 % of control and 115 % of control
same,T/C,"dose: 3.0 mg/kg/injection, schedule: Q01DX Z (ip), vehicle: saline",112 % of control
same,T/C,"dose: 3.6 mg/kg/injection, schedule: Q01DX001 (ip), vehicle: carboxymethylcellulose (CMC)",163 % of control
same,T/C,"dose: 3.6 mg/kg/injection, schedule: Q01DX001 (ip), vehicle: gum acacia",150 % of control
same,T/C,"dose: 3.7 mg/kg/injection, schedule: Q01DX Z (ip), vehicle: saline",90 % of control
same,T/C,"dose: 4.5 mg/kg/injection, schedule: Q03DX006 (ip), vehicle: carboxymethylcellulose (CMC)",111 % of control
same,T/C,"dose: 5.0 mg/kg/injection, schedule: Q01DX001 (ip), vehicle: carboxymethylcellulose (CMC)",161 % of control
same,T/C,"dose: 5.0 mg/kg/injection, schedule: Q07DX003 (ip), vehicle: carboxymethylcellulose (CMC)",188 % of control
same,T/C,"dose: 5.4 mg/kg/injection, schedule: Q01DX001 (ip), vehicle: gum acacia",172 % of control and 330 % of control
same,T/C,"dose: 6.0 mg/kg/injection, schedule: Q01DX Z (im), vehicle: carboxymethylcellulose (CMC)",95 % of control
same,T/C,"dose: 6.0 mg/kg/injection, schedule: Q01DX Z (oral), vehicle: carboxymethylcellulose (CMC)",104 % of control
same,T/C,"dose: 6.0 mg/kg/injection, schedule: Q01DX Z (sc), vehicle: carboxymethylcellulose (CMC)",105 % of control
same,T/C,"dose: 6.0 mg/kg/injection, schedule: Q#A X Z (ip), vehicle: carboxymethylcellulose (CMC)",154 % of control
same,T/C,"dose: 10.0 mg/kg/injection, schedule: Q01DX001 (ip), vehicle: carboxymethylcellulose (CMC)",105 % of control and 123 % of control
same,T/C,"dose: 12.0 mg/kg/injection, schedule: Q01DX006 (iv), vehicle: carboxymethylcellulose (CMC)",115 % of control
same,T/C,"dose: 20.0 mg/kg/injection, schedule: Q01DX001 (ip), vehicle: carboxymethylcellulose (CMC)",120 % of control
same,T/C,"dose: 29.0 micrograms/kg/injection, schedule: Q01DX Z (ip), vehicle: saline",119 % of control
same,T/C,"dose: 44.0 micrograms/kg/injection, schedule: Q01DX Z (ip), vehicle: saline",121 % of control
same,T/C,"dose: 100.0 micrograms/kg/injection, schedule: Q01DX Z (ip), vehicle: saline",113 % of control
CCCCCCc1cc(N=Nc2ccc(S(N)(=O)=O)cc2)c(O)cc1O,T/C,"dose: 100.0 mg/kg/injection, schedule: Q01DX001 (ip), vehicle: saline",97 % of control
same,T/C,"dose: 200.0 mg/kg/injection, schedule: Q01DX001 (ip), vehicle: saline",102 % of control
same,T/C,"dose: 400.0 mg/kg/injection, schedule: Q01DX001 (ip), vehicle: saline",96 % of control
CCCCCCCCCC(=O)N/N=C/c1ccco1,T/C,"dose: 100.0 mg/kg/injection, schedule: Q01DX009 (ip), vehicle: Klucel (hydroxypropylcellulose) (HPC)",87 % of control
same,T/C,"dose: 200.0 mg/kg/injection, schedule: Q01DX009 (ip), vehicle: Klucel (hydroxypropylcellulose) (HPC)",99 % of control
CCN(CC)C(=O)Nc1cccc(OC(=O)NC)c1,T/C,"dose: 100.0 mg/kg/injection, schedule: Q04DX003 (ip), vehicle: saline with Tween-80",99 % of control
same,T/C,"dose: 200.0 mg/kg/injection, schedule: Q04DX003 (ip), vehicle: saline with Tween-80",98 % of control
